Experimental data reported in article PMC12920294, “Optimizing uPAR-targeting radiopeptides for improved tissue distribution: progress towards radionuclide therapy” (European Journal of Nuclear Medicine and Molecular Imaging, 2025).
Where two headings read alike, the source gives them in different places. Marks after values point to notes of the source that are not given here.

Experiments:
[1] = Biodistribution in HEK-uPAR xenografted nude mice; conditions: CD1 nude, mouse, 0.5 nmol/mouse, total radioactivity, 1 h p.i., decay-corrected
[2] = test system: HEK-uPAR xenograft-bearing mice; test: Biodistribution in HEK-uPAR xenografted nude mice
human serum albumin = human serum albumin (Homo sapiens, UniProt P02768); conditions: cited from earlier work
[3] = test system: HEK-uPAR xenograft-bearing mice; conditions: ref Beyer et al. 2025, Mol Pharm 22:3242, cited from earlier work
[4] = design: method as in Beyer et al. 2025, Mol Pharm 22:3242; conditions: 37 °C, ref Beyer et al. 2025, Mol Pharm 22:3242, cited from earlier work
[5] = test system: HEK-uPAR xenograft-bearing mice; conditions: mouse, in vivo
[6] = design: method as in Beyer et al. 2025, Mol Pharm 22:3242; conditions: 37 °C, ref Beyer et al. 2025, Mol Pharm 22:3242, cited from earlier work; remark: listed apart in the source
[7] = design: method as in Beyer et al. 2025, Mol Pharm 22:3242; conditions: saline, L-ascorbic acid, ref Beyer et al. 2025, Mol Pharm 22:3242, cited from earlier work
[8] = design: method as in Beyer et al. 2025, Mol Pharm 22:3242; conditions: FVB mice, ref Beyer et al. 2025, Mol Pharm 22:3242, cited from earlier work
[9] = non-decay-corrected, ± standard error

Sequence of human serum albumin (P02768 25-609): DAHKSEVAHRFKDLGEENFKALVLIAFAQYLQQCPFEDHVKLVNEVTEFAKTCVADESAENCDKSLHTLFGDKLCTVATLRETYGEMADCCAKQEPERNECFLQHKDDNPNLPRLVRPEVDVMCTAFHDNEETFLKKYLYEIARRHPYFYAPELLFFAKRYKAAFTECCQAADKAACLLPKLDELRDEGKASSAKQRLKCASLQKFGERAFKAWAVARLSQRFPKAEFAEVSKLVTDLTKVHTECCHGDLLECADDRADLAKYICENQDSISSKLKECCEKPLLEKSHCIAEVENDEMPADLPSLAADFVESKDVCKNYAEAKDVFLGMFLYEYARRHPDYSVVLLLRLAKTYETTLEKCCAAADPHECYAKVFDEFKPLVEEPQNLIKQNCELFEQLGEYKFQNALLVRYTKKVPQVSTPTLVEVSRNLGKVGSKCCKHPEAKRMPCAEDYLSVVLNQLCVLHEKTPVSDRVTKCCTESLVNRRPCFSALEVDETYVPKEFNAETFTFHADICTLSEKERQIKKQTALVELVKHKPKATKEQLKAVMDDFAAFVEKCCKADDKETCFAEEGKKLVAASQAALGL

tissue uptake at 1 h ([1]; HEK-uPAR xenograft, HEK-uPAR xenograft uptake): 1.9 ± 0.7 %ID/g
tissue uptake at 1 h ([1]; blood, Blood uptake): 0.92 ± 0.4 %ID/g
tissue uptake at 1 h ([1]; bone, Bone uptake): 0.35 ± 0.11 %ID/g
tissue uptake at 1 h ([1]; brain, Brain uptake): < 0.03 %ID/g
tissue uptake at 1 h ([1]; heart, Heart uptake): 0.38 ± 0.16 %ID/g
tissue uptake at 1 h ([1]; intestines, Intestines uptake): 0.52 ± 0.1 %ID/g
tissue uptake at 1 h ([1]; kidneys, Kidneys uptake): 4.2 ± 0.8 %ID/g
tissue uptake at 1 h ([1]; liver, Liver uptake): 0.4 ± 0.14 %ID/g
tissue uptake at 1 h ([1]; lung, Lung uptake): 1.2 ± 0.4 %ID/g
tissue uptake at 1 h ([1]; muscle, Muscle uptake): 0.14 ± 0.06 %ID/g
tissue uptake at 1 h ([1]; pancreas, Pancreas uptake): 0.26 ± 0.08 %ID/g
tissue uptake at 1 h ([1]; salivary glands, Salivary glands uptake): 0.35 ± 0.13 %ID/g
tissue uptake at 1 h ([1]; spleen, Spleen uptake): 0.47 ± 0.17 %ID/g
tissue uptake at 1 h ([1]; stomach, Stomach uptake): 0.39 ± 0.2 %ID/g
Xgrft-to-blood ratio ([2]; 1 h p.i.): 2.2 ± 0.2
Xgrft-to-liver ratio ([2]; 1 h p.i.): 4.9 ± 0.1
AUC0h→48h, HEK-uPAR xenograft [2, 9]: 26 ± 3 % IA/g*h
AUC0h→48h, blood [2, 9]: 28 ± 1 % IA/g*h
AUC0h→48h, kidneys [2, 9]: 62 ± 2 % IA/g*h
AUC0h→48h, liver [2, 9]: 6.9 ± 0.2 % IA/g*h
Xgrft-to-kidney ratio [5]: 0.46 ± 0.07
Structure (SMILES): CC(C)C[C@H](NC(=O)[C@H](Cc1ccc(O)cc1)NC(=O)[C@@H](CCCNC(=N)N)NC(=O)[C@@H](CO)NC(=O)[C@H](Cc1ccccc1)NC(=O)[C@H](CC1CCCCC1)NC(=O)[C@H](CC(=O)O)NC(=O)CN1CCN(CC(=O)O)CCN(CC(=O)O)CCN(CC(=O)O)CC1)C(=O)N[C@@H](Cc1c[nH]c2ccccc12)C(=O)N[C@@H](CO)C(N)=O [[^177Lu]Lu-DOTA-AE105, metal not drawn]
Inverse relative albumin-binding affinity (human serum albumin): 0.02^a
Blood uptake ([3]; 4 h p.i.): 0.08 ± 0.01 %IA/g
Bone uptake ([3]; 4 h p.i.): 0.38 ± 0.03 %IA/g
Brain uptake ([3]; 4 h p.i.): <0.03 %IA/g
HEK-uPAR xenograft uptake ([3]; 4 h p.i.): 0.87 ± 0.05 %IA/g
Heart uptake ([3]; 4 h p.i.): 0.06 ± 0.01 %IA/g
Intestines uptake ([3]; 4 h p.i.): 0.31 ± 0.03 %IA/g
Kidneys uptake ([3]; 4 h p.i.): 1.5 ± 0.1 %IA/g
Liver uptake ([3]; 4 h p.i.): 0.10 ± 0.01 %IA/g
Lung uptake ([3]; 4 h p.i.): 0.30 ± 0.02 %IA/g
Muscle uptake ([3]; 4 h p.i.): <0.03 %IA/g
Pancreas uptake ([3]; 4 h p.i.): 0.06 ± 0.01 %IA/g
Salivary glands uptake ([3]; 4 h p.i.): 0.09 ± 0.01 %IA/g
Spleen uptake ([3]; 4 h p.i.): 0.18 ± 0.02 %IA/g
Stomach uptake ([3]; 4 h p.i.): 0.15 ± 0.03 %IA/g
Xgrft-to-blood ratio ([3]; 4 h p.i.): 11 ± 1
Xgrft-to-liver ratio ([3]; 4 h p.i.): 8.6 ± 0.4
Blood uptake ([3]; 24 h p.i.): <0.03 %IA/g
Bone uptake ([3]; 24 h p.i.): 0.84 ± 0.10 %IA/g
Brain uptake ([3]; 24 h p.i.): <0.03 %IA/g
HEK-uPAR xenograft uptake ([3]; 24 h p.i.): 0.40 ± 0.19 %IA/g
Heart uptake ([3]; 24 h p.i.): 0.04 ± 0.01 %IA/g
Intestines uptake ([3]; 24 h p.i.): 0.18 ± 0.02 %IA/g
Kidneys uptake ([3]; 24 h p.i.): 1.3 ± 0.1 %IA/g
Liver uptake ([3]; 24 h p.i.): 0.17 ± 0.01 %IA/g
Lung uptake ([3]; 24 h p.i.): 0.21 ± 0.01 %IA/g
Muscle uptake ([3]; 24 h p.i.): <0.03 %IA/g
Pancreas uptake ([3]; 24 h p.i.): 0.06 ± 0.01 %IA/g
Salivary glands uptake ([3]; 24 h p.i.): 0.09 ± 0.01 %IA/g
Spleen uptake ([3]; 24 h p.i.): 0.23 ± 0.04 %IA/g
Stomach uptake ([3]; 24 h p.i.): 0.17 ± 0.03 %IA/g
Xgrft-to-blood ratio ([3]; 24 h p.i.): 32 ± 13
Xgrft-to-liver ratio ([3]; 24 h p.i.): 2.4 ± 0.9
Mouse blood plasma stability, intact radiopeptide ([4]; 1 h): 61 ± 6%
Mouse blood plasma stability, intact radiopeptide ([4]; 4 h): 13 ± 7%
Mouse blood plasma stability, intact radiopeptide ([4]; 24 h): 4.6 ± 2.2%
Human blood plasma stability, intact radiopeptide ([6]; 1 h): 71 ± 3%
Human blood plasma stability, intact radiopeptide ([6]; 4 h): 13 ± 6%
Human blood plasma stability, intact radiopeptide ([6]; 24 h): 4.5 ± 1.2%
Radiolytic stability, intact radiopeptide ([7]; 1 h): 98 ± 2%
Radiolytic stability, intact radiopeptide ([7]; 4 h): 98 ± 1%
Radiolytic stability, intact radiopeptide ([7]; 24 h): 96 ± 2%
Blood plasma, intact radiopeptide ([8]; 1 h p.i.): <1.0%
Blood plasma, radiometabolite ([8]; 1 h p.i.): >99%
Kidneys, intact radiopeptide ([8]; 1 h p.i.): <1.0%
Kidneys, radiometabolite ([8]; 1 h p.i.): >99%
Liver, intact radiopeptide ([8]; 1 h p.i.): <1.0%
Liver, radiometabolite ([8]; 1 h p.i.): >99%
Urine, intact radiopeptide ([8]; 1 h p.i.): 1.4%
Urine, radiometabolite ([8]; 1 h p.i.): 99%
Blood plasma, intact radiopeptide ([8]; 4 h p.i.): <1.0%
Blood plasma, radiometabolite ([8]; 4 h p.i.): >99%
Kidneys, intact radiopeptide ([8]; 4 h p.i.): <1.0%
Kidneys, radiometabolite ([8]; 4 h p.i.): >99%
Liver, intact radiopeptide ([8]; 4 h p.i.): <1.0%
Liver, radiometabolite ([8]; 4 h p.i.): >99%
Urine, intact radiopeptide ([8]; 4 h p.i.): 2.3%
Urine, radiometabolite ([8]; 4 h p.i.): 98%
